Reference: patent US8168199B2, “Dipeptidyl peptidase IV inhibitors for the treatment of schizophrenia and depression” (priority 2000, dated 2012)

Assays:
dipeptidyl peptidase IV = molecular target: T1, dipeptidyl peptidase IV (Homo sapiens, UniProt P27487); conditions: human serum incubated with neuropeptide Y or peptide YY; cited from earlier work
T1 construct: from tissue; host or cells: human serum

[1] = system: Male WistarF/Han (WF) rats; experiment: Social interaction (SI) test with Y1R antagonist BIBP3226, P32/98 and NPY (Example 4); assay type: in vivo, rat
Procedure: (§1) Animals. Male WistarF/Han (WF) rats (Central Animal Laboratory, Hannover Medical School, Hannover, Germany, weighing 330±31 g±SD, were housed in a sound-proof, temperature controlled (24.0±0.5° C.) room under specific pathogen free conditions with a 12/12 h dark/light cycle (lights on at 07.00 with illumination level of 80 Lux). Food (Altromin lab chow pellets) and tap water were available ad libitum. Under ketamine/xylasine (100/5 mg/kg, i.p.) anesthesia, the rats were fixed in a Kopf stereotaxic frame and implanted with cannulae (Plastic One, Inc., Roanoke, Va., USA) above the lateral ventricle. All research and animal care procedures were approved by the Lower Saxony district government (Hannover, Germany) and followed principles described in the European Community's Council Directive of 24 Nov. 1986 (86/609/EEC).
(§2) Surgery and i.c.v. application. […]
(§3) Animals were randomly divided into eight experimental groups (n=6-8/group), which completed one SI test of anxiety: (1) aCSF+aCSF+aCSF; (2) BIBP+aCSF+aCSF; (3) aCSF+P32/98+aCSF; (4) BIBP+P32/98+aCSF; (5) aCSF+aCSF+NPY; (6) BIBP+aCSF+NPY; (7) aCSF+[…]+NPY; (8) BIBP+P32/98+NPY. […] The time spent in active social interaction (SI-time), 1 h, and 12 h food-intake were measured. […]
Social interaction (SI) test. […] Behavior was monitored using a video camera placed above the field inside the testing/isolation box. The SI behavior of both rats was recorded on-line from a monitor placed outside on top of the box. The following parameters were scored by an observer (HPN) unaware of the substrain of rats: duration of time spent in sniffing, following, crawling under and over other rats, but not passive body contact (resting, sleeping). […]
(§4) Statistical analysis. Data obtained from the measures SI time and 1 h food intake were analyzed by one-way (factor: “treatment”) ANOVA. […]

[2] = system: Male WistarF/Han (WF) rats; experiment: 1 h and 12 h food-intake after i.c.v. P32/98 and NPY (Example 3); assay type: in vivo, rat; conditions: i.c.v. P32/98 5 pmol-500 nmol, NPY 50 pmol-1.6 nmol; dark cycle
Procedure: as §1, with “330-370 g,” for “330±31 g±SD,”
Surgery and i.c.v. application. For surgery, rats were anesthetized and prepared with i.c.v. cannulae (coordinates: A: −0.7 mm caudal, L: 1.4 mm lateral to bregma; and V3.2 mm ventral to the skull surface; tooth bar +3.0 above ear bars) using standard stereotaxic procedures as described in detail elsewhere (von Hörsten et al., 1998a, b, c). After a 7-day recovery period, successful ventricle cannulation was confirmed by an angiotensin drinking response (von Hörsten et al., 1998a). Rats showing a positive drinking response (n=59) were then habituated to experimental handling by daily sham injections for seven days.
Animals were randomly divided into two sets of four experimental groups (n=5-6/group), which completed different consecutive SI test of anxiety. […] The time spent in active social interaction (SI-time), 1 h and 12 h food-intake were measured. […]
Statistical analysis. Data from repeated observations (food intake) were analyzed by two-way analyses of variance for repeated measures (ANOVA) (factors: “substrain” and “food intake” as repeated measure). Data obtained from simple measures such as DPIV activity or SI time were analyzed by one-way (factor: “substrain”) ANOVA. […]

[3] = system: Male WistarF/Han (WF) rats; experiment: 1 h food-intake with Y1R antagonist BIBP3226, P32/98 and NPY (Example 4); assay type: in vivo, rat; conditions: i.c.v. BIBP3226 100 nmol
Procedure: as §1, §2, §3, §4

rats = conditions: administered into the dorsal periaqueductal gray matter; cited from earlier work
[4] = i.c.v. injection; cited from earlier work

T1 sequence (P27487 39-766 limits assumed): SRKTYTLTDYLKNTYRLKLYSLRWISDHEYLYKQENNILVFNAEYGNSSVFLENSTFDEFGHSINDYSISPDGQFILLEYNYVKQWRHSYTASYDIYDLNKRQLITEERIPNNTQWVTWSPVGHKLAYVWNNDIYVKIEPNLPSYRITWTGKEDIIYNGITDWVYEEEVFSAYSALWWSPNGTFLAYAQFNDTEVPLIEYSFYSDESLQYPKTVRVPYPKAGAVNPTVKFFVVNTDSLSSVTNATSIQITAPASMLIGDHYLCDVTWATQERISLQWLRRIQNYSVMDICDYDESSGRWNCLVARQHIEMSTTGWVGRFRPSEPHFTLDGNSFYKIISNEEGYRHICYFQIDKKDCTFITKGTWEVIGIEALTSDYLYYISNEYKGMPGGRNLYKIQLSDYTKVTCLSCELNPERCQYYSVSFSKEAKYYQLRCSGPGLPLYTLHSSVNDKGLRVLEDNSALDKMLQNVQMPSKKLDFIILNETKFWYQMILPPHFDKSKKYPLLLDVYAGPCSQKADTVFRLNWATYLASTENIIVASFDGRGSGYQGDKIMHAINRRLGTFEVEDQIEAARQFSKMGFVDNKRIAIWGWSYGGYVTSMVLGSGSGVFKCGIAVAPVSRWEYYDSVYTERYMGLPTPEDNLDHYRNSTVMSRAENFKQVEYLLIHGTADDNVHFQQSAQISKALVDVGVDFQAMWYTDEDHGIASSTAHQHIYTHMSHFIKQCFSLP

For NCCCC[C@H](N)C(=O)N1CCCC1 [Lys-pyrrolidine], the “formation of Tyr-Pro in serum” value (dipeptidyl peptidase IV) is given as “blocked”.
With “Rat neuropeptide Y1-36 [NPY, reference compound]” the “SI-time, NPY alone” value ([1]; i.c.v. 0.8 nmol) was “anxiolytic-like effect” and the “amount of food eaten within 1 h” value [2] was ““u-shaped” dose-dependent feeding effect”.
In the case of Ile-Pro-Ile [diprotin A], the “formation of Tyr-Pro in serum” value (dipeptidyl peptidase IV) is given as “blocked”.
In the case of NC(N)=NCCC[C@@H](NC(=O)C(c1ccccc1)c1ccccc1)C(=O)NCc1ccc(O)cc1 [BIBP3226], the “effect of Y1 receptor antagonist pre-treatment on P32/98-induced potentiation of NPY anxiolysis (SI behavior)” value ([1]; i.c.v. BIBP3226 100 nmol, P32/98 50 nmol, NPY 0.8 nmol) is given as “can block”, the “effect of Y1 R blockade on 1 h feeding effects” value [3] is given as “only partly affected” and the “time spent in active social interaction” value (rats) is given as “decreased”. The “anxiety-related behavior in the elevated plus-maze test” value [4] was “anxiogenic-like effects” and the “locomotor effect in the elevated plus-maze test” value [4] was “without any locomotor deficit”.
